ChEMBL document CHEMBL1201862, “PubChem BioAssay data set” (2004)
Calls of active or inactive are those of the source.

Experiments:
[1] = Shn3 3'UTR reporter inhibitors, dose response, cell-based, Clone20 osteoblasts, firefly luciferase, cherry-picked (AID 624132); format: functional;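 note: firefly luciferase luminescence from reporter carrying the Shn3 3'UTR in osteoblasts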
[2] = control 3'UTR Renilla luciferase suppression, dose response, counter-screen for Shn3 inhibitor project, cell-based, Clone20-Shn3RL, cherry-picked (AID 624133); format: functional
Interleukin-8 = target: T1, Interleukin-8 (Homo sapiens, UniProt P10145); test: Dose Response confirmation of uHTS small molecule hits for cystic fibrosis induced NFkb Inhibitors in a PAF-induced IL8 counterscreen.; format: functional; conditions: read-out: IC50_Mean
T1 sequence (P10145 whole entry): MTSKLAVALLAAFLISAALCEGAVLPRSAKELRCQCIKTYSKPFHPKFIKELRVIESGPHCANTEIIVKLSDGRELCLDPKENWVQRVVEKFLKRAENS

[3] = A549 cell cytotoxicity, dose response, cytotoxicity control, plate reader, cherry-pick, antagonist series (AID 743412); format: functional, cell-based
[4] = HepG2 cell cytotoxicity, dose response, cytotoxicity control, plate reader, cherry-pick, antagonist series (AID 743416); format: functional, cell-based
[5] = LGR2 antagonists, dose response, cell-based, HEK293, CRE-luciferase reporter, cherry pick, set 2 (AID 743343); format: functional;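 note: transfected cells were stimulated with diluted bursicon conditioned medium after compound addition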
[6] = MC4R antagonists, dose response, counter-screen for LGR2 antagonist project, cell-based, plate reader, cherry pick (AID 743444); format: functional;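 note: transfected HEK 293 cells stimulated with alpha-MSH peptide; potency of inhibitors of the alpha-MSH evoked signal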
[7] = HEK293 cell cytotoxicity, dose response, cytotoxicity control, plate reader, cherry-picked samples (AID 743446); format: functional, cell-based
cells [8] = format: functional, cell-based
cells [9] = format: functional, cell-based; remark: listed apart in the source
[10] = target: Glucose-6-phosphate 1-dehydrogenase (Homo sapiens, UniProt P11413); test: human G6PD enzyme inhibitors, dose response, selectivity assay for P. falciparum G6PD inhibitor project, biochemical, fluorescence (AID 504792); format: functional
Vero [11] = test: cells; format: functional; conditions: Chlorocebus sabaeus
Paired box protein Pax-8 = Paired box protein Pax-8 (Homo sapiens, UniProt Q06710); test: inhibitors of PAX8-driven TPO luciferase reporter, dose response, RMG-I cells, cherry-pick (AID 687027); format: functional, cell-based;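 note: luciferase reporter driven by Pax8 target thyroperoxidase promoter measured by SteadyGlo luminescence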
Vero [12] = test: cells; format: functional, cell-based; conditions: Chlorocebus sabaeus
Cytochrome P450 2C19 = Cytochrome P450 2C19 (Homo sapiens, UniProt P33261); test: Cytochrome panel assay with activity outcomes. Panel member name: p450-cyp2c19 Compounds with AC50 equal or less than 10 uM are considered active; format: functional; conditions: read-out: AC50
Cytochrome P450 2D6 = Cytochrome P450 2D6 (Homo sapiens, UniProt P10635);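 note: CYP2D6 member of a cytochrome P450 panel assay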
Cytochrome P450 2C9 = Cytochrome P450 2C9 (Homo sapiens, UniProt P11712)
Caspase-6 = target: T2, Caspase-6 (Homo sapiens, UniProt P55212); test: human caspase-6 inhibitors, dose response, biochemical, VEID-R110 fluorescence, cherry-pick (AID 720632)
T2 sequence (P55212 whole entry): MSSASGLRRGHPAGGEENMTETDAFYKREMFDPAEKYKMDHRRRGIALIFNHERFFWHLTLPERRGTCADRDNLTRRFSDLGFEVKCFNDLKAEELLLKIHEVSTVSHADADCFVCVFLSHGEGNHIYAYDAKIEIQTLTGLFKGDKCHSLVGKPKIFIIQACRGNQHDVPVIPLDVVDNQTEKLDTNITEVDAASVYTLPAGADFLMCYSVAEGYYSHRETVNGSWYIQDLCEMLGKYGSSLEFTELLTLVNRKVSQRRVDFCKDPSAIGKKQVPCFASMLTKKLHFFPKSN

[13] = target: T3, Microphthalmia-associated transcription factor (Homo sapiens, UniProt O75030); test: TRPM1 promoter luciferase signal decrease, dose response, MITF inhibitor project, cell-based, SK-MEL-5, cherry-picked, set 3 (AID 493073); format: functional
T3 sequence (O75030 whole entry): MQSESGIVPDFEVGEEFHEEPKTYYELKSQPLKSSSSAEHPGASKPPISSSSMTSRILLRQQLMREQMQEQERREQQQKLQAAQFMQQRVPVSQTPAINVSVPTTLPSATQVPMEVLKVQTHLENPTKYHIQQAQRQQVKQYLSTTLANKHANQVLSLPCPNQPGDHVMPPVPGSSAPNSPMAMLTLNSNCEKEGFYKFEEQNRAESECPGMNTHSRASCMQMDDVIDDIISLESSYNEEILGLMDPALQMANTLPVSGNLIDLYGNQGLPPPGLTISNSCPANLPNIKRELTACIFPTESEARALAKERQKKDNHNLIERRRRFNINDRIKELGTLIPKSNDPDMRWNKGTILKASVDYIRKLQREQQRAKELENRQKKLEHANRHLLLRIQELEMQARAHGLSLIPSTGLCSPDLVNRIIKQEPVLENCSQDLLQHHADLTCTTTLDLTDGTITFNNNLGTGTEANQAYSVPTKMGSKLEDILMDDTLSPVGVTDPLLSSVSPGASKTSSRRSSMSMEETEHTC

INS1 = test: beta cell apoptosis inhibitors, cytokine rescue, dose response, luminescence, retest (AID 449756); format: functional, cell-based; conditions: Rattus norvegicus;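 note: cell death triggered by IL-1 beta plus TNF-alpha plus IFN-gamma mixture; protective hits raise ATP signal compared with cytokine alone wells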
Cytochrome P450 3A4 = Cytochrome P450 3A4 (Homo sapiens, UniProt P08684);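 note: CYP3A4 tested as one member of a cytochrome P450 panel screen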
[14] = P. falciparum 3D7-ScDHODH growth inhibitors, dose response, SYBR Green, dry powder samples (AID 1159570); format: functional, cell-based;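 note: parasite growth measured after 72 hours of compound exposure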
[15] = P. falciparum Dd2 growth inhibitors, dose response, SYBR Green, cherry-picked samples (AID 1159567); format: functional, cell-based
[16] = P. falciparum Dd2 growth inhibitors, dose response, SYBR Green, dry powder samples (AID 1159566); format: functional, cell-based;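 note: potency for growth inhibition with lower SYBR green DNA signal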
[17] = P. falciparum ATP4 D1247Y mutant growth inhibitors, dose response, NITD609-resistant line, SYBR Green, dry powder (AID 1159571); format: functional, cell-based;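 note: parasites synchronized at ring stage by sorbitol before testing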
[18] = target: Ras and Rab interactor 1/Tyrosine-protein kinase ABL1 (Homo sapiens, UniProt P00519+Q13671); format: functional;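 note: biochemical TR-FRET dose-response test measuring inhibition of binding between Rin1 and Abl proteins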
Ras and Rab interactor 1/Tyrosine-protein kinase ABL1, sequence (P00519 whole entry): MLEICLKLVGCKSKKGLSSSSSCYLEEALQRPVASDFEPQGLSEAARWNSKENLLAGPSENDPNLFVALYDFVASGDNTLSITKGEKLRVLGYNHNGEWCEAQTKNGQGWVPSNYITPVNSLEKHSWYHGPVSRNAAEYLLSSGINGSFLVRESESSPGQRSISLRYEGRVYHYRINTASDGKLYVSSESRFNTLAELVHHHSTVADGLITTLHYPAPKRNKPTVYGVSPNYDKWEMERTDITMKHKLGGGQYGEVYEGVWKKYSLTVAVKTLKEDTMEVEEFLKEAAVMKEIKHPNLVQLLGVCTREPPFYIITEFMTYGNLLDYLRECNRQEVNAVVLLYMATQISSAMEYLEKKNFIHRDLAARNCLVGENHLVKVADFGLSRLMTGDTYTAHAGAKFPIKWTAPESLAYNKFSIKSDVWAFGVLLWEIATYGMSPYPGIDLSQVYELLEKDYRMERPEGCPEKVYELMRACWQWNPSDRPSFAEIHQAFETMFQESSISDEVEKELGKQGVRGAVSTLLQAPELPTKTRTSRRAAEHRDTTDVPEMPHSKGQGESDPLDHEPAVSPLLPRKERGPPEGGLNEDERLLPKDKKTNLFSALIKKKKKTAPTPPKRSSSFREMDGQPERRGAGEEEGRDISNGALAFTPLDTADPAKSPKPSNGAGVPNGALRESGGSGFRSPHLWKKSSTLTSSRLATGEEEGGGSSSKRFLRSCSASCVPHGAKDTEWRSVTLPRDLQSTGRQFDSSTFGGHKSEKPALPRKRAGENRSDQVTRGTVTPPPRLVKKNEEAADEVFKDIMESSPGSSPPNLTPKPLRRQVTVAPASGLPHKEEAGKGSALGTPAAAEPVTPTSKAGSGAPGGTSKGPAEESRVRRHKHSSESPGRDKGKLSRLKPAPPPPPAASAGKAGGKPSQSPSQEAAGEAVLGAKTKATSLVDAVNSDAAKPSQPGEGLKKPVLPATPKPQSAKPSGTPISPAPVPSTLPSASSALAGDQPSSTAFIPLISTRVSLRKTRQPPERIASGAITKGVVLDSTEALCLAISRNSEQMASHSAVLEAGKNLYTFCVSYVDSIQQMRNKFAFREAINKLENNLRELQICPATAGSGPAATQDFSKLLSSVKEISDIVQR
Ras and Rab interactor 1/Tyrosine-protein kinase ABL1, sequence (Q13671 whole entry): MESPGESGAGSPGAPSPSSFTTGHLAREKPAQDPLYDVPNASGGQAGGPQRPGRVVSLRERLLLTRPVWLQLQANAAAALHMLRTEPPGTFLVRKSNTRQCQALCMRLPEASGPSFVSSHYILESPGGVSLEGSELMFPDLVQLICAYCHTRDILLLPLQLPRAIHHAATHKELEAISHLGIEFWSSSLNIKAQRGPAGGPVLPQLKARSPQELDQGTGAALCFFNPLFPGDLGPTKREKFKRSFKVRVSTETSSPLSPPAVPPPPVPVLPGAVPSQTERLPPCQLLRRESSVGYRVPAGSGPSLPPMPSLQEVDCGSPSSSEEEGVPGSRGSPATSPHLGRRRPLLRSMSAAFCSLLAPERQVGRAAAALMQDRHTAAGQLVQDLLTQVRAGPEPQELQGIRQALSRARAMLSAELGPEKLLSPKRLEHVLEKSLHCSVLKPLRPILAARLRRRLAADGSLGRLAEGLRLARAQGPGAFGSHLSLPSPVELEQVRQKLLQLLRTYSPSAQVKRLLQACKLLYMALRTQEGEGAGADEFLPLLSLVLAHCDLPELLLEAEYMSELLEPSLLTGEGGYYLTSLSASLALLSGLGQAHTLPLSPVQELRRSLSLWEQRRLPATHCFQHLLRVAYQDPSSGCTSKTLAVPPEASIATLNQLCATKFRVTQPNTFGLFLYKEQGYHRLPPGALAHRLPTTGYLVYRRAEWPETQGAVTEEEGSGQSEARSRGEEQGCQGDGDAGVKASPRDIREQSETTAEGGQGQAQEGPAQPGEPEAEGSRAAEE

Cytochrome P450 2D6, sequence (P10635 whole entry): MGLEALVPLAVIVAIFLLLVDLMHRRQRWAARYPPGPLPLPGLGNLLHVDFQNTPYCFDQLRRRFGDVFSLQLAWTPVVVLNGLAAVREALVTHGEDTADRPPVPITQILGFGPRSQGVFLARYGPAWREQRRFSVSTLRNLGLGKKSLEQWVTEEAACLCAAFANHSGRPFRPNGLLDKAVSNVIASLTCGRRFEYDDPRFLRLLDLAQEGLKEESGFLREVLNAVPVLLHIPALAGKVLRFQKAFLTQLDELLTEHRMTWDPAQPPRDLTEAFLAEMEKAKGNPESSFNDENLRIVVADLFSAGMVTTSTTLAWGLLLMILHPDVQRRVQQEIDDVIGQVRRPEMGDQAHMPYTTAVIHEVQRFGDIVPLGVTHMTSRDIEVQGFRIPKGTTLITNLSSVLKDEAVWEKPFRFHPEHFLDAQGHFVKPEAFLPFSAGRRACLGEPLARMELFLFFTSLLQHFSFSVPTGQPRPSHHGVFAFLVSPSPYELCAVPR
Cytochrome P450 2C9, sequence (P11712 whole entry): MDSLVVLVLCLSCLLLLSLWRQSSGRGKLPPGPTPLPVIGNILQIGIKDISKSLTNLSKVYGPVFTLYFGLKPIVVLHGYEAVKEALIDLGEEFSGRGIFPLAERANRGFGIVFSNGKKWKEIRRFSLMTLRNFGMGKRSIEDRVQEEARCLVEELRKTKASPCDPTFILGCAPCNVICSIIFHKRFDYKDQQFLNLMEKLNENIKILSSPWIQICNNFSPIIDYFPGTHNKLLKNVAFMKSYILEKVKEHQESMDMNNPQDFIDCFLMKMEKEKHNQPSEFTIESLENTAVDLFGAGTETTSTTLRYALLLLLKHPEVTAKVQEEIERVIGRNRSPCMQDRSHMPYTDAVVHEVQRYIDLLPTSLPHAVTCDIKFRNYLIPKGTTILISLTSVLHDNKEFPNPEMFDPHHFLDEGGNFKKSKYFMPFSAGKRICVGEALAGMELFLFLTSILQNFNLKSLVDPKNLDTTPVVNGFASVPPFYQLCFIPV
Glucose-6-phosphate 1-dehydrogenase, sequence (P11413 whole entry): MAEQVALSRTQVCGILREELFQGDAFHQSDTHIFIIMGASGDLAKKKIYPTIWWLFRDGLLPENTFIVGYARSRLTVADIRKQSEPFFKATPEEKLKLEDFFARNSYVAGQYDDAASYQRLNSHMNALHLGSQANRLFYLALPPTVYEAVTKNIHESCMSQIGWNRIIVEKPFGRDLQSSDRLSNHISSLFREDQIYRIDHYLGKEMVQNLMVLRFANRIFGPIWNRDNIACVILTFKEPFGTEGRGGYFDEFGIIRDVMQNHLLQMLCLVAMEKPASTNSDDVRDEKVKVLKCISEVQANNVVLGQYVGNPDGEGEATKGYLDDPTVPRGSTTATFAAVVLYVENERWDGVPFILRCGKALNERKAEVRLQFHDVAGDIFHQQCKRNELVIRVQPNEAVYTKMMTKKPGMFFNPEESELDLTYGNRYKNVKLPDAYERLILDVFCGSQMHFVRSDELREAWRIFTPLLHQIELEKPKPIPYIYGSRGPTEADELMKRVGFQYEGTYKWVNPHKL
Cytochrome P450 3A4, sequence (P08684 whole entry): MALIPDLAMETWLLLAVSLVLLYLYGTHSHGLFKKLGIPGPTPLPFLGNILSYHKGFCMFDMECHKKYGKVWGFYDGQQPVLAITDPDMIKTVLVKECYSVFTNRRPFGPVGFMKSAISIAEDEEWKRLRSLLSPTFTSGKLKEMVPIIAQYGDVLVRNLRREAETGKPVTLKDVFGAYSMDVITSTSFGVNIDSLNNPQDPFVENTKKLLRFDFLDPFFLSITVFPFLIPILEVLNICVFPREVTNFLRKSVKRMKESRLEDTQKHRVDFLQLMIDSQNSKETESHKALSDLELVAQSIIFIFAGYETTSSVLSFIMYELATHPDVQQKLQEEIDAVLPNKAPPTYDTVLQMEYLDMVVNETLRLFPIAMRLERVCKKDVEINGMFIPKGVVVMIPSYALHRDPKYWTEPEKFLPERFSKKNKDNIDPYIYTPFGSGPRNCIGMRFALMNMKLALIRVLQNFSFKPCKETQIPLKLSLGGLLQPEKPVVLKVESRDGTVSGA
Paired box protein Pax-8, sequence (Q06710 whole entry): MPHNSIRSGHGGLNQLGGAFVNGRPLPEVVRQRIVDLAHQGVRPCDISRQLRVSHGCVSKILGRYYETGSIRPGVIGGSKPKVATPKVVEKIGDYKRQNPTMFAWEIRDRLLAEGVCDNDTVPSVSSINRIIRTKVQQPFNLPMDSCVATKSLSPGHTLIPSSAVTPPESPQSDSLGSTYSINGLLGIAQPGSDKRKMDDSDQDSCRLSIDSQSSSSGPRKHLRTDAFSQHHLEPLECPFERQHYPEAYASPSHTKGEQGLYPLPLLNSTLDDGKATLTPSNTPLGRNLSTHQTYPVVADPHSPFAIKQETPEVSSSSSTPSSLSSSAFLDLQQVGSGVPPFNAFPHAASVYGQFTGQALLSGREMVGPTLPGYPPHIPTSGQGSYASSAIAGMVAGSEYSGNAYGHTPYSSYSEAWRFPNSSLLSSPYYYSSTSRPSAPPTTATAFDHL
Cytochrome P450 2C19, sequence (P33261 whole entry): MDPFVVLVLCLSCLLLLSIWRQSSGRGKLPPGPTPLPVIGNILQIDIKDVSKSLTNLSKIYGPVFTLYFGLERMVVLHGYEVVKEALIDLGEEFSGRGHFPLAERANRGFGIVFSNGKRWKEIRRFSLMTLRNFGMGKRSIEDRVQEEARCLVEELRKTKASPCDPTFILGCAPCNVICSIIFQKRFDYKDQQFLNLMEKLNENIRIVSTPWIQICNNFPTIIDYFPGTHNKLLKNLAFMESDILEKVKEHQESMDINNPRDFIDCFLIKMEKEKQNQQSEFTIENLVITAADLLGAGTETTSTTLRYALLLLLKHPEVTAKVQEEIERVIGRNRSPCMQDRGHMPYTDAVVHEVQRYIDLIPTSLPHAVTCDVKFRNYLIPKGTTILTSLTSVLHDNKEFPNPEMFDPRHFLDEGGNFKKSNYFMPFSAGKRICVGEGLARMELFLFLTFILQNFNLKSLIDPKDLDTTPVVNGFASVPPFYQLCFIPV

**Q.** Which AC50 [1] does the source give for `COc1ccc(NS(=O)(=O)c2ccc(NC(=O)C(CCSC)NC(N)=O)cc2)cc1` (stereo not given) here?
**A.** Its AC50 is > 70 µM (inactive).

**Q.** What about the AC50 [2] of the same compound?
**A.** The AC50 was 26.9 µM (active).

**Q.** For `CCc1cc(-c2n[nH]cc2-c2ccc(OC)cc2)c(O)cc1O`, which IC50 (Interleukin-8) is on record?
**A.** Its IC50 is 6.31 µM (active).

**Q.** Which results are given for `OC(c1ccccc1)(c1ccccc1)C1CCN(CCCOc2ccc(C(F)(F)F)cc2)CC1`?
**A.** AC50 [3]: 9.23 µM (active); AC50 [4]: 10.7 µM (active); AC50 [5]: 18.8 µM (active); AC50 [6]: 11.6 µM (active); AC50 [7]: 16.6 µM (active)

**Q.** With `Cc1noc(C(=O)Nc2sc3c(c2C#N)CCC3)c1Cl` as the compound, how does the EC50 (cells [8]) read?
**A.** Its EC50 is > 350 µM (not active).

**Q.** What about the EC50 (cells [9]) of the same compound?
**A.** Its EC50 is 57 µM (active).

**Q.** What about the IC50 [10] of the same compound?
**A.** The IC50 was 47.5 µM (inactive).

**Q.** Which CC50 (Vero [11]) does the source give for `Cn1nnnc1Sc1ncnc2scc(-c3ccc4c(c3)OCO4)c12` here?
**A.** Its CC50 is 24 µM (active).

**Q.** And the AC50 (Paired box protein Pax-8)?
**A.** Its AC50 is 0.747 µM (active).

**Q.** And the AC50 [3]?
**A.** Its AC50 is 14.4 µM (active).

**Q.** What about the AC50 [5] of the same compound?
**A.** Its AC50 is 0.695 µM (active).

**Q.** What about the AC50 [6] of the same compound?
**A.** Its AC50 is 1.34 µM (active).

**Q.** What about the AC50 [7] of the same compound?
**A.** Its AC50 is 28.8 µM (active).

**Q.** Which IC50 (Vero [12]) does the source give for `Cn1cc([N+](=O)[O-])c(C(=O)Nc2ccn(C34CC5CC(CC(C5)C3)C4)n2)n1` here?
**A.** The IC50 was 24.3 µM (active).

**Q.** And the CC50 (Vero [11])?
**A.** Its CC50 is > 25 µM (active).

**Q.** For `COc1ccc(Cl)cc1NC(=O)CN1C(=O)CSC1=O`, which AC50 (Cytochrome P450 2C19) is on record?
**A.** Its AC50 is 39.8 µM (inconclusive).

**Q.** And the AC50 (Cytochrome P450 2D6)?
**A.** The AC50 was 5.62 µM (inconclusive).

**Q.** And the AC50 (Cytochrome P450 2C9)?
**A.** Its AC50 is “inconclusive”.

**Q.** With `O=[N+]([O-])c1ccc(F)c2c(O)[nH]nc12` as the compound, how does the AC50 (Caspase-6) read?
**A.** The AC50 was 6.73 µM (active).

**Q.** Which IC50 (Vero [12]) does the source give for `O=C(NC1CCCCC1)c1ccc([N+](=O)[O-])o1` here?
**A.** Its IC50 is > 25 µM (active).

**Q.** What about the CC50 (Vero [11]) of the same compound?
**A.** Its CC50 is 18.4 µM (active).

**Q.** What does the source list for `C/C(=N\NC(=O)C(c1ccccc1)c1ccccc1)c1ccccn1`?
**A.** AC50 [13]: 5.96 µM (active); AC50 (INS1): 1.3 µM (active)

**Q.** With `O=C1c2ccccc2C(=O)N1Cc1cc(-c2ccccc2Cl)no1` as the compound, how does the AC50 (Cytochrome P450 2D6) read?
**A.** Its AC50 is 3.16 µM (inconclusive).

**Q.** And the AC50 (Cytochrome P450 3A4)?
**A.** Its AC50 is 39.8 µM (inconclusive).

**Q.** What about the AC50 (Cytochrome P450 2C9) of the same compound?
**A.** Its AC50 is “inconclusive”.

**Q.** With `COc1ccc(NC(=O)N(C)C[C@@H]2Oc3cc(-c4ccc(C)cc4)ccc3S(=O)(=O)N([C@H](C)CO)C[C@@H]2C)cc1` as the compound, how does the AC50 [14] read?
**A.** The AC50 was 3.13 µM (active).

**Q.** What about the AC50 [15] of the same compound?
**A.** Its AC50 is 2.58 µM (active).

**Q.** What about the AC50 [16] of the same compound?
**A.** Its AC50 is 2.25 µM (active).

**Q.** What about the AC50 [17] of the same compound?
**A.** The AC50 was 3.25 µM (active).

**Q.** With `COc1ccccc1N(C(=O)c1snc(C(N)=O)c1N)C(C(=O)NCc1ccccc1)c1ccc(O)cc1` (stereo not given) as the compound, how does the IC50 [18] read?
**A.** The IC50 was 50 µM (inactive).
